The values below come from ChEMBL document CHEMBL5344468, “Novel Heterocyclic PAD4 Inhibitors for Treating Diseases” (ACS Med Chem Lett, 2024).

SMILES strings stand for the structures.

Broadly, the IC50 is the concentration that gives 50% inhibition. Read a high IC50 as weaker potency in that assay.

This experiment deals with Protein-arginine deiminase type-4 (Homo sapiens, UniProt Q9UM07). The experiment in a line: Inhibition of human PAD4 using BAEE as substrate preincubated with enzyme for 30 mins followed by substrate addition for 90 mins and later incubated with phenyl glyoxal for 30 mins by RFMS assay.
Protein-arginine deiminase type-4, sequence (Q9UM07 whole entry): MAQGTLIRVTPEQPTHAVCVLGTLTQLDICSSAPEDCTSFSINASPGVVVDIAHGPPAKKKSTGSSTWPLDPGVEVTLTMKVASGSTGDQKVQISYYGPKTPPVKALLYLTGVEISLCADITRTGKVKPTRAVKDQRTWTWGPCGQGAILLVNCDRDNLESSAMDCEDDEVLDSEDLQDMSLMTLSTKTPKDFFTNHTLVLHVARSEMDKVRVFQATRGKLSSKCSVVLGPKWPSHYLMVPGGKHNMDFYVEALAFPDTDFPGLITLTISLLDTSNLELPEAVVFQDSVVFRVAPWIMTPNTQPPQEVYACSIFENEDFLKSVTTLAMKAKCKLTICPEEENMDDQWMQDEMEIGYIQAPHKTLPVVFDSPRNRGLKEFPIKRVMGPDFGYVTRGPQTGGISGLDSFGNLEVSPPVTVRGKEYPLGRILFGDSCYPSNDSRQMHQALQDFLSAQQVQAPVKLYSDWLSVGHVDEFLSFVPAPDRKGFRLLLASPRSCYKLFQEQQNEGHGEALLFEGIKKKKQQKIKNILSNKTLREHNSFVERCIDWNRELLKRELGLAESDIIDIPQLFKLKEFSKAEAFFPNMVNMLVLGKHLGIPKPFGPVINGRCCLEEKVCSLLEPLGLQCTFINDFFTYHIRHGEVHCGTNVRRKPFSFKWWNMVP
Turning to `Cn1c(-c2cc3cccc(OCCc4cnn[nH]4)c3n2CC2CC2)nc2cc3c(nc21)CCN(C[C@H](N)CF)C3=O`, the concentration for half-maximal inhibition (IC50) was no more than 10 nM.

The molecule `Cn1c(-c2cc3cccc(OCCc4ccon4)c3n2CC2CC2)nc2cc3c(nc21)CCN(C[C@H](N)CF)C3=O` gave an IC50 of no more than 10 nM.

`Cn1c(-c2cc3cccc(OCCc4cnco4)c3n2CC2CC2)nc2cc3c(nc21)CCN(C[C@H](N)CF)C3=O`: the IC50 was no more than 10 nM.

`Cn1c(-c2cc3cccc(OCCc4ccn[nH]4)c3n2CC2CC2)nc2cc3c(nc21)CCN(C[C@H](N)CF)C3=O` yielded a 50% inhibitory concentration (IC50) of no more than 10 nM.

Molecule `Cn1c(-c2cc3cccc(OCCc4cccnc4)c3n2CC2CC2)nc2cc3c(nc21)CCN(C[C@H](N)CF)C3=O` had a half-maximal inhibitory concentration (IC50) of no more than 10 nM.

Consider `Cn1c(-c2cc3ccnc(OCCn4ccnc4)c3n2CC2CC2)nc2cc3c(nc21)CCN(C[C@H](N)CF)C3=O`, for which the concentration for half-maximal inhibition (IC50) is no more than 10 nM.
